Our source for the TD50 and ED50 values is patent publication US4337260A, “Imidazopyridine-spiro-piperidine compounds” (Yoshitomi Pharmaceutical Industries, Ltd., priority 1981, dated 1982).

The structures appear in SMILES notation.

The nature of one series: Cataleptogenic activity. The note with it: rat, in vivo, ip; Wistar female rats; from total points of the maximum appearance of catatonia; read-out: Cataleptogenic Activity ED50. As for the experimental part: (2) Cataleptogenic Activity
The test was performed according to the method described by W. Wirth et al. in "Archives Internationales de Pharmacodynamie et de Therapie", vol, 115, 1 ff (1958).
Groups of 5 Wistar female rats each were used. […] The ED50 was determined from total points of the maximum appearance of catatonia.

For series [1], the system named is apomorphine-induced vomiting. As to the kind of experiment: Effect on apomorphine-induced vomiting. The format is in vivo. The note with it: Canis lupus familiaris, po, 2 hours prior to apomorphine hydrochloride (0.1 mg/kg, s.c.); beagle dogs; vomiting checked for 2 hours. On the procedure: (1) Effect on apomorphine-induced vomiting
The test was performed according to the method described by M. Nakanishi et al. in "Arzneimittel-Forschung", vol. 21, 391 ff (1971).
Groups of 5-10 beagle dogs of both sexes each were used. The test compound was administered orally 2 hours prior to the treatment with apomorphine hydrochloride (0.1 mg/kg, s.c.). The incidence of vomiting was checked for 2 hours, and the ED50 (50% effective dose) was determined.

As a reminder, the ED50 is the midpoint of the dose-response relation. High values mean weaker potency, low ones greater potency. For the compound `CN(C)CCCN1c2ccccc2Sc2ccc(Cl)cc21` [Chlorpromazine, reference compound], in “Cataleptogenic activity”, the TD50 was 12 mg/kg. This compound showed an ED50 in series [1] of 5.1 mg/kg.

Consider `Cl.Cl.O.O=C1NC2CCCCN2C12CCN(CCCN1c3ccccc3CCc3ccccc31)CC2` (centres unmarked) [Test Compound A, 1'-[3-(10,11-dihydro-5H-dibenzo[b,f]azepin-5-yl)propyl]-1,2,3,5,6,7,8,8a-octahydro-2-oxo-imidazo[1,2-a]pyridine-3-spiro-4'-piperidine dihydrochloride monohydrate], for which the TD50 in the series “Cataleptogenic activity” is > 50 mg/kg. The compound also displayed an ED50 in series [1] of 2.5 mg/kg.

For the compound `Cl.Cl.O.O=C1NC2CCCCN2C12CCN(CCCN1c3ccccc3CCc3ccc(Cl)cc31)CC2` (centres unmarked) [Test Compound B, 1'-[3-(3-chloro-10,11-dihydro-5H-dibenz[b,f]azepin-5yl)propyl]-1,2,3,5,6,7,8,8a-octahydro-2-oxo-imidazo[1,2-a]pyridine-3spiro-4'-piperidine dihydrochloride monohydrate], the TD50 in “Cataleptogenic activity” is > 50 mg/kg. The compound further returned an ED50 in series [1] of 0.5 mg/kg.

As for `Cl.Cl.O.O=C1N=C2CCCCN2C12CCN(CCCN1c3ccccc3CCc3ccccc31)CC2` [Test Compound C, 1'-[3-(10,11-dihydro-5H-dibenz[b,f]azepin-5-yl)propyl]-2,3,5,6,7,8-hexahydro-2-oxo-imidazo[1,2-a]pyridine-3-spiro-4'-piperidine dihydrochloride monohydrate], in the series “Cataleptogenic activity”, the TD50 is > 50 mg/kg. This compound also gave an ED50 in series [1] of 2 mg/kg.
